In paper PMC5218480 (PLoS ONE, 2017):

System: MV-4-11 cells
Assay: Gene expression microarray analysis (Affymetrix PrimeView) and GSEA
Assay type: cell-based, human
Set-up: RFU PODN (11730768_x_at) / Fold change /veh PODN (11730768_x_at) / RFU LINC00158 (11744669_a_at) / Fold change /veh LINC00158 (11744669_a_at) / RFU DUSP10 (11751237_a_at) / Fold change /veh DUSP10 (11751237_a_at) / RFU ID3 (11757404_x_at) / Fold change /veh ID3 (11757404_x_at) / RFU PLEKHG5 (11737974_s_at) / Fold change /veh PLEKHG5 (11737974_s_at) / RFU LRRC4B (11730491_at) / Fold change /veh LRRC4B (11730491_at) / RFU GIMAP4 (11747438_a_at) / Fold change /veh GIMAP4 (11747438_a_at) / RFU KRT8 (11758183_x_at) / Fold change /veh KRT8 (11758183_x_at) / RFU CNN1 (11734310_a_at) / Fold change /veh CNN1 (11734310_a_at) / RFU VPS37D (11726825_at) / Fold change /veh VPS37D (11726825_at) / RFU C10orf10 (11716522_x_at) / Fold change /veh C10orf10 (11716522_x_at) / RFU KIR2DL2 /// KIR2DL4 /// KIR2DL5A /// KIR2DL5B /// KIR2DS1 /// KIR2DS2 /// KIR2DS3 /// KIR2DS4 /// KIR3DL3 /// KIR3DL3 /// KIR3DS1 (11738374_at) / Fold change /veh KIR2DL2 /// KIR2DL4 /// KIR2DL5A /// KIR2DL5B /// KIR2DS1 /// KIR2DS2 /// KIR2DS3 /// KIR2DS4 /// KIR3DL3 /// KIR3DL3 /// KIR3DS1 (11738374_at) / RFU C1QL1 (11718748_at) / Fold change /veh C1QL1 (11718748_at) / RFU TMPRSS4 (11747572_a_at) / Fold change /veh TMPRSS4 (11747572_a_at) / RFU HAMP (11756126_x_at) / Fold change /veh HAMP (11756126_x_at) / RFU RNFT2 (11725882_a_at) / Fold change /veh RNFT2 (11725882_a_at) / RFU NR4A2 (11747474_a_at) / Fold change /veh NR4A2 (11747474_a_at) / RFU ABCC12 (11746883_a_at) / Fold change /veh ABCC12 (11746883_a_at) / RFU TMEM136 (11760407_x_at) / Fold change /veh TMEM136 (11760407_x_at) / RFU CLDN22 /// WWC2 (11732394_at) / Fold change /veh CLDN22 /// WWC2 (11732394_at) / RFU HLA-DPB1 (11760878_x_at) / Fold change /veh HLA-DPB1 (11760878_x_at) / RFU SPINT1 (11716480_a_at) / Fold change /veh SPINT1 (11716480_a_at) / RFU GAP43 (11754022_s_at) / Fold change /veh GAP43 (11754022_s_at) / RFU A4GNT (11735810_at) / Fold change /veh A4GNT (11735810_at) / RFU PRB3 (11715151_x_at) / Fold change /veh PRB3 (11715151_x_at) / RFU TUBB4B (11761932_at) / Fold change /veh TUBB4B (11761932_at) / RFU CAPN14 (11732068_a_at) / Fold change /veh CAPN14 (11732068_a_at) / RFU TMCC2 (11721928_a_at) / Fold change /veh TMCC2 (11721928_a_at) / RFU IRGQ (11745062_a_at) / Fold change /veh IRGQ (11745062_a_at) / RFU FAM174B (11720279_a_at) / Fold change /veh FAM174B (11720279_a_at) / RFU TMPRSS4 (11748680_a_at) / Fold change /veh TMPRSS4 (11748680_a_at) / RFU FAM212B (11763350_a_at) / Fold change /veh FAM212B (11763350_a_at) / RFU PLEKHG5 (11743358_a_at) / Fold change /veh PLEKHG5 (11743358_a_at) / RFU ZSCAN30 (11745921_a_at) / Fold change /veh ZSCAN30 (11745921_a_at) / RFU CMKLR1 (11741424_a_at) / Fold change /veh CMKLR1 (11741424_a_at) / RFU LOC101060620 /// MAPK8IP1 (11723275_at) / Fold change /veh LOC101060620 /// MAPK8IP1 (11723275_at) / RFU SPTSSB (11747773_x_at) / Fold change /veh SPTSSB (11747773_x_at) / RFU PRSS12 (11739890_at) / Fold change /veh PRSS12 (11739890_at) / RFU BIN1 (11741810_x_at) / Fold change /veh BIN1 (11741810_x_at) / RFU WNT11 (11732464_a_at) / Fold change /veh WNT11 (11732464_a_at) / RFU C10orf10 (11716521_a_at) / Fold change /veh C10orf10 (11716521_a_at) / RFU C5orf56 (11738089_at) / Fold change /veh C5orf56 (11738089_at) / RFU CYB561 (11721691_x_at) / Fold change /veh CYB561 (11721691_x_at) / RFU ANKRD19P (11752326_a_at) / Fold change /veh ANKRD19P (11752326_a_at) / RFU OR2T12 /// OR2T33 /// OR2T8 (11738714_s_at) / Fold change /veh OR2T12 /// OR2T33 /// OR2T8 (11738714_s_at) / RFU VCAN (11748164_a_at) / Fold change /veh VCAN (11748164_a_at) / RFU JSRP1 (11732532_at) / Fold change /veh JSRP1 (11732532_at) / RFU KRTAP10-11 (11738290_x_at) / Fold change /veh KRTAP10-11 (11738290_x_at) / RFU MYO3A (11730013_a_at) / Fold change /veh MYO3A (11730013_a_at) / RFU EBF3 (11725865_a_at) / Fold change /veh EBF3 (11725865_a_at) / RFU CAMK2N1 (11719241_x_at) / Fold change /veh CAMK2N1 (11719241_x_at) / RFU C5orf56 (11738088_a_at) / Fold change /veh C5orf56 (11738088_a_at) / RFU OLFML3 (11715873_a_at) / Fold change /veh OLFML3 (11715873_a_at) / RFU LOC100653217 /// NTM (11731650_a_at) / Fold change /veh LOC100653217 /// NTM (11731650_a_at) / RFU MAPK11 (11762145_a_at) / Fold change /veh MAPK11 (11762145_a_at) / RFU FIZ1 (11724087_x_at) / Fold change /veh FIZ1 (11724087_x_at) / RFU OASL (11726364_x_at) / Fold change /veh OASL (11726364_x_at) / RFU SOX15 (11748057_x_at) / Fold change /veh SOX15 (11748057_x_at) / RFU CD79A (11719716_a_at) / Fold change /veh CD79A (11719716_a_at) / RFU HIST1H1D (11736915_at) / Fold change /veh HIST1H1D (11736915_at) / RFU CASKIN2 (11723855_a_at) / Fold change /veh CASKIN2 (11723855_a_at) / RFU LOC730098 (11760151_x_at) / Fold change /veh LOC730098 (11760151_x_at) / RFU OR4N2 (11742367_at) / Fold change /veh OR4N2 (11742367_at) / RFU PRRT2 (11749266_a_at) / Fold change /veh PRRT2 (11749266_a_at) / RFU SNX32 (11753110_a_at) / Fold change /veh SNX32 (11753110_a_at) / RFU CDHR5 (11726645_a_at) / Fold change /veh CDHR5 (11726645_a_at) / RFU RCAN1 (11760418_a_at) / Fold change /veh RCAN1 (11760418_a_at) / RFU FAM167A (11723789_a_at) / Fold change /veh FAM167A (11723789_a_at) / RFU FAM26E (11764081_at) / Fold change /veh FAM26E (11764081_at) / RFU ISYNA1 (11749810_s_at) / Fold change /veh ISYNA1 (11749810_s_at) / RFU ACY1 (11761880_at) / Fold change /veh ACY1 (11761880_at) / RFU 11764098_at / Fold change /veh 11764098_at / RFU SAMD14 (11745864_x_at) / Fold change /veh SAMD14 (11745864_x_at) / RFU NPB (11741838_a_at) / Fold change /veh NPB (11741838_a_at) / RFU TMPRSS6 (11731388_a_at) / Fold change /veh TMPRSS6 (11731388_a_at) / RFU KRTAP10-2 (11738614_at) / Fold change /veh KRTAP10-2 (11738614_at) / RFU ARHGAP8 /// PRR5-ARHGAP8 (11727945_x_at) / Fold change /veh ARHGAP8 /// PRR5-ARHGAP8 (11727945_x_at) / RFU KRTAP5-7 /// NADSYN1 (11734609_at) / Fold change /veh KRTAP5-7 /// NADSYN1 (11734609_at) / RFU RASL12 (11751679_a_at) / Fold change /veh RASL12 (11751679_a_at) / RFU CDKN2B (11736163_a_at) / Fold change /veh CDKN2B (11736163_a_at) / RFU PRF1 (11729649_at) / Fold change /veh PRF1 (11729649_at) / RFU, ZNF638 /// ZNF638-IT1 / Fold change vs veh, ZNF638 /// ZNF638-IT1 / RFU, PANK3 / Fold change vs veh, PANK3 / RFU, SH3YL1 / Fold change vs veh, SH3YL1 / RFU, ZEB2 / Fold change vs veh, ZEB2 / RFU, NRIP1 / Fold change vs veh, NRIP1 / RFU, PTTG1IP / Fold change vs veh, PTTG1IP / RFU, CAPN2 / Fold change vs veh, CAPN2 / RFU, MED14 / Fold change vs veh, MED14 / RFU, SNORA58 / Fold change vs veh, SNORA58 / RFU, C1orf63 / Fold change vs veh, C1orf63 / RFU, LRRFIP1 / Fold change vs veh, LRRFIP1 / RFU, NDUFAF7 / Fold change vs veh, NDUFAF7 / RFU, SLC12A2 / Fold change vs veh, SLC12A2 / RFU, IBTK / Fold change vs veh, IBTK / RFU, ESF1 / Fold change vs veh, ESF1 / Fold change vs veh, TMEM50B / RFU, TAOK1 / Fold change vs veh, TAOK1 / RFU, ACBD3 / Fold change vs veh, ACBD3 / RFU, TMA16 / Fold change vs veh, TMA16 / RFU, RWDD3 / Fold change vs veh, RWDD3 / RFU, BCAT1 / Fold change vs veh, BCAT1 / RFU, EDEM3 / Fold change vs veh, EDEM3 / RFU, TMEM33 / Fold change vs veh, TMEM33 / RFU, WDR75 / Fold change vs veh, WDR75 / RFU, AHCTF1 / Fold change vs veh, AHCTF1 / RFU, TFRC / Fold change vs veh, TFRC / RFU, ZDHHC17 / Fold change vs veh, ZDHHC17 / RFU, NOM1 / Fold change vs veh, NOM1 / RFU, ARL8B / Fold change vs veh, ARL8B / RFU, ZBTB11 / Fold change vs veh, ZBTB11 / RFU, TAMM41 / Fold change vs veh, TAMM41 / RFU, KIAA1704 /// LOC100996395 / Fold change vs veh, KIAA1704 /// LOC100996395 / RFU, ING1 / Fold change vs veh, ING1 / RFU, TRMT61B / Fold change vs veh, TRMT61B / RFU, FUBP3 / Fold change vs veh, FUBP3 / RFU, TP53 / Fold change vs veh, TP53 / RFU, TNKS2 / Fold change vs veh, TNKS2 / RFU, ZFP14 / Fold change vs veh, ZFP14 / RFU, ACTR2 / Fold change vs veh, ACTR2 / RFU, PPP3R1 / Fold change vs veh, PPP3R1 / RFU, PIK3R1 / Fold change vs veh, PIK3R1 / RFU, HNRNPA1 / Fold change vs veh, HNRNPA1 / RFU, RNF170 / Fold change vs veh, RNF170 / RFU, ZNF28 / Fold change vs veh, ZNF28 / RFU, RNGTT / Fold change vs veh, RNGTT / RFU, OGT / Fold change vs veh, OGT / RFU, BRD1 / Fold change vs veh, BRD1 / RFU, MARS / Fold change vs veh, MARS / RFU, ZNF655 / Fold change vs veh, ZNF655 / RFU, FAHD1 / Fold change vs veh, FAHD1 / RFU, BDP1 / Fold change vs veh, BDP1 / RFU, LRRCC1 / Fold change vs veh, LRRCC1 / RFU, ARID1A / Fold change vs veh, ARID1A / RFU, ZNF146 / Fold change vs veh, ZNF146 / RFU, ZNF330 / Fold change vs veh, ZNF330 / RFU, GPN3 / Fold change vs veh, GPN3 / RFU, C9orf123 / Fold change vs veh, C9orf123 / RFU, N4BP2L2 / Fold change vs veh, N4BP2L2 / RFU, ARFIP1 / Fold change vs veh, ARFIP1 / RFU, FAM179B / Fold change vs veh, FAM179B / RFU, BCL10 / Fold change vs veh, BCL10 / RFU, UHRF1BP1L / Fold change vs veh, UHRF1BP1L / RFU, BET1 / Fold change vs veh, BET1 / RFU, CNOT2 / Fold change vs veh, CNOT2 / RFU, ZNF268 / Fold change vs veh, ZNF268 / Fold change vs veh, ZNF507 / RFU, DGCR2 / Fold change vs veh, DGCR2 / RFU, WDSUB1 / Fold change vs veh, WDSUB1 / Fold change vs veh, HSP90B1 /// MIR3652 / RFU, ADSS / Fold change vs veh, ADSS / RFU, GK / Fold change vs veh, GK / RFU, ZNF148 / Fold change vs veh, ZNF148 / RFU, TAF9 / Fold change vs veh, TAF9 / RFU, SLC1A5 / Fold change vs veh, SLC1A5 / RFU, SLMO2 / Fold change vs veh, SLMO2 / RFU, ABCC4 / Fold change vs veh, ABCC4 / RFU, LOC101060439 /// RAP1B / Fold change vs veh, LOC101060439 /// RAP1B / RFU, RFX7 / Fold change vs veh, RFX7 / RFU, GTPBP10 / Fold change vs veh, GTPBP10 / RFU, CNEP1R1 / Fold change vs veh, CNEP1R1 / RFU, BIVM-ERCC5 /// ERCC5 / Fold change vs veh, BIVM-ERCC5 /// ERCC5 / RFU, ILF3 / Fold change vs veh, ILF3 / RFU 11762660_at / Fold change /veh 11762660_at / RFU VCAN (11757783_s_at) / Fold change /veh VCAN (11757783_s_at) / RFU DDX43 (11728927_at) / Fold change /veh DDX43 (11728927_at) / RFU KRT8 (11758188_x_at) / Fold change /veh KRT8 (11758188_x_at) / RFU NKD1 (11759106_at) / Fold change /veh NKD1 (11759106_at) / RFU SRD5A1 (11742802_a_at) / Fold change /veh SRD5A1 (11742802_a_at) / RFU TPSAB1 /// TPSB2 (11721975_s_at) / Fold change /veh TPSAB1 /// TPSB2 (11721975_s_at) / RFU GSTM3 (11746129_a_at) / Fold change /veh GSTM3 (11746129_a_at) / RFU IL23R (11737362_x_at) / Fold change /veh IL23R (11737362_x_at) / RFU TMEM51 (11727254_a_at) / Fold change /veh TMEM51 (11727254_a_at) / RFU PIWIL2 (11732686_x_at) / Fold change /veh PIWIL2 (11732686_x_at) / RFU ORM1 (11744905_x_at) / Fold change /veh ORM1 (11744905_x_at) / RFU CCDC152 (11743942_at) / Fold change /veh CCDC152 (11743942_at) / RFU ECM1 (11717891_a_at) / Fold change /veh ECM1 (11717891_a_at) / RFU IL23R (11748794_a_at) / Fold change /veh IL23R (11748794_a_at) / RFU TNFAIP8L3 (11732012_x_at) / Fold change /veh TNFAIP8L3 (11732012_x_at) / RFU MBOAT4 (11741988_at) / Fold change /veh MBOAT4 (11741988_at) / RFU 11764193_at / Fold change /veh 11764193_at / RFU TMEM53 (11763286_at) / Fold change /veh TMEM53 (11763286_at) / RFU MAGEB2 (11727129_at) / Fold change /veh MAGEB2 (11727129_at) / RFU TMEM200A (11744735_a_at) / Fold change /veh TMEM200A (11744735_a_at) / RFU CCDC152 (11751479_a_at) / Fold change /veh CCDC152 (11751479_a_at) / RFU FAM211A (11726209_a_at) / Fold change /veh FAM211A (11726209_a_at) / RFU RGS16 (11746705_a_at) / Fold change /veh RGS16 (11746705_a_at) / RFU VCAN (11755009_s_at) / Fold change /veh VCAN (11755009_s_at) / RFU RHOB (11743442_s_at) / Fold change /veh RHOB (11743442_s_at) / RFU RGS16 (11720943_a_at) / Fold change /veh RGS16 (11720943_a_at) / RFU RGS16 (11720944_at) / Fold change /veh RGS16 (11720944_at) / RFU, VPS4B / Fold change vs veh, VPS4B / RFU, CREB1 / Fold change vs veh, CREB1 / RFU, DNAJC13 / Fold change vs veh, DNAJC13 / RFU, GNAQ / Fold change vs veh, GNAQ / RFU, CDK5R1 / Fold change vs veh, CDK5R1 / RFU, ZRANB3 / Fold change vs veh, ZRANB3 / RFU, CUL4A / Fold change vs veh, CUL4A / RFU, CCNY / Fold change vs veh, CCNY / RFU, UFL1 / Fold change vs veh, UFL1 / RFU, COG3 / Fold change vs veh, COG3 / RFU, DIAPH2 / Fold change vs veh, DIAPH2 / RFU, SKA2 / Fold change vs veh, SKA2 / RFU, AFF3 / Fold change vs veh, AFF3 / RFU, LMF1 / Fold change vs veh, LMF1 / RFU, IPO11 / Fold change vs veh, IPO11 / RFU, DFFB / Fold change vs veh, DFFB / RFU, FOXP1 / Fold change vs veh, FOXP1 / RFU, CARD8 / Fold change vs veh, CARD8 / RFU, STRN3 / Fold change vs veh, STRN3 / RFU, ADK / Fold change vs veh, ADK / RFU, RASSF2 / Fold change vs veh, RASSF2 / RFU, WIPF1 / Fold change vs veh, WIPF1 / RFU, LARP1B / Fold change vs veh, LARP1B / RFU, RASA1 / Fold change vs veh, RASA1 / RFU, RB1 / Fold change vs veh, RB1 / RFU, PPFIA1 / Fold change vs veh, PPFIA1 / RFU, MAT2A / Fold change vs veh, MAT2A / RFU, CCT5 / Fold change vs veh, CCT5 / RFU, WDR92 / Fold change vs veh, WDR92 / RFU, CUX1 / Fold change vs veh, CUX1 / RFU, TTC7A / Fold change vs veh, TTC7A / RFU, TMEM135 / Fold change vs veh, TMEM135 / RFU, DEPTOR / Fold change vs veh, DEPTOR / RFU, CPM / Fold change vs veh, CPM / RFU, DNAJB6 / Fold change vs veh, DNAJB6 / RFU, CACNA2D3 / Fold change vs veh, CACNA2D3 / RFU, DTX4 / Fold change vs veh, DTX4 / RFU, TFCP2 / Fold change vs veh, TFCP2 / RFU, GMCL1 /// GMCL1P1 / Fold change vs veh, GMCL1 /// GMCL1P1 / RFU, AEBP2 / Fold change vs veh, AEBP2 / RFU, SNHG1 /// SNORD22 /// SNORD25 /// SNORD26 /// SNORD27 /// SNORD28 /// SNORD29 /// SNORD31 / Fold change vs veh, SNHG1 /// SNORD22 /// SNORD25 /// SNORD26 /// SNORD27 /// SNORD28 /// SNORD29 /// SNORD31 / Fold change (Aza/veh), C12orf56 (ProbeSet 11735607_a_at) / Fold change (ACY-1035/veh), C12orf56 (ProbeSet 11735607_a_at) / Fold change (Aza/veh), FGFR1OP (ProbeSet 11751329_s_at) / Fold change (ACY-1035/veh), FGFR1OP (ProbeSet 11751329_s_at) / Fold change (Aza/veh), VPS36 (ProbeSet 11739960_a_at) / Fold change (ACY-1035/veh), VPS36 (ProbeSet 11739960_a_at) / RFU SYPL1 (11715823_x_at) / Fold change /veh SYPL1 (11715823_x_at) / RFU IGFBP7 (11715501_s_at) / Fold change /veh IGFBP7 (11715501_s_at) / RFU REEP3 (11722064_at) / Fold change /veh REEP3 (11722064_at) / RFU IGLL1 (11728026_x_at) / Fold change /veh IGLL1 (11728026_x_at): dose or concentration left out as unconfirmed
Conditions: ProbeSet 11729173_a_at; LIST D

## Nc1ccc(-c2cccs2)cc1NC(=O)c1ccc2c(c1)cc(C1CC1)n2CCN1CCOCC1 [ACY-1035]
  RFU, SKA2: 338.69 RFU
